The values below come from ChEMBL document CHEMBL3867472, “Discovery of benzofuran propanoic acid GPR120 agonists: From uHTS hit to mechanism-based pharmacodynamic effects” (Bioorg Med Chem Lett, 2016).

pEC50, pIC50: −log10 of the molar value. Activity calls are given as the source filed them. The rule behind the calls is not given here.

Usually half-life stands for how long it takes for the measured level to halve. As usually defined, the pEC50 is the EC50 on a negative log10 scale, so that one unit is a factor of ten. In general, bioavailability refers to the share of a dose that reaches the circulation, judged against a reference dose that is usually intravenous. Broadly, the Cmax is the maximum level reached in the sampled fluid or tissue. The term pIC50 denotes the negative decadic logarithm of the IC50, by convention in mol/L.

Data set [1] deals with T1, Free fatty acid receptor 4 (Mus musculus) (UniProt Q7TMA4).
T1 sequence (whole entry): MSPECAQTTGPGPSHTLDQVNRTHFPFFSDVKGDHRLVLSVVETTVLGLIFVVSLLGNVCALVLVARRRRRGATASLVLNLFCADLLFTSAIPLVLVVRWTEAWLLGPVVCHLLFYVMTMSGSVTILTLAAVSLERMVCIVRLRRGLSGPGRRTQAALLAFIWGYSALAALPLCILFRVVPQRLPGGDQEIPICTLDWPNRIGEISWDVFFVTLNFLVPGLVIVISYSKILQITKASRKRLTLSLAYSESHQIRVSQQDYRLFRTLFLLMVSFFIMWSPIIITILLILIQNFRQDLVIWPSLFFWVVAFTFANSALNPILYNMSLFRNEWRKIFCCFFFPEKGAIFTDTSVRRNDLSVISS
Kind of data set: Agonist activity at mouse GPR120 expressed in CHOK1 cells measured after 60 mins by IP1-HTRF assay relative to basal level. The note with it: CHO-K1. The format is functional, cell-based. On the set-up: concentration or dose not given beside the values.

Data set [2] is described as follows: Half life in mouse at 2 mg/kg, iv or 10 mg/kg, po. The class given is ADME, organism-based. Particulars: in vivo.
The nature of data set [3]: Clearance in mouse at 2 mg/kg, iv or 10 mg/kg, po. Particulars: in vivo. The class given is ADME, organism-based.
In data set [4] the target is T2, Free fatty acid receptor 4 (Homo sapiens, UniProt Q5NUL3).
T2 sequence (Q5NUL3 whole entry): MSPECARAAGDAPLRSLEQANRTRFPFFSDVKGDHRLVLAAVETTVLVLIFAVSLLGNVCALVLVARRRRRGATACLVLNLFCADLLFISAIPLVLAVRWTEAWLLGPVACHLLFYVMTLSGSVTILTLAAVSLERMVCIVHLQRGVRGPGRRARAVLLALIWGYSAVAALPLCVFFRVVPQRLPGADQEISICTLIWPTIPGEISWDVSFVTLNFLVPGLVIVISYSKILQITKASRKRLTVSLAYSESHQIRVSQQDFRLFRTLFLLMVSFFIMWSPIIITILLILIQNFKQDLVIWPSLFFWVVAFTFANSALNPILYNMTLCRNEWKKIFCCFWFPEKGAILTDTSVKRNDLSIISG
Kind of data set: Agonist activity at human GPR120 expressed in CHOK1 cells measured after 60 mins by IP1-HTRF assay. The class given is functional, cell-based, CHO-K1. On the technique in general: Time-resolved FRET reads energy transfer from a long-lived donor to a nearby acceptor.

Data set [5] can be described thus: Protein binding in mouse plasma. The class given is ADME, cell-free. Particulars: read-out: PPB (converted).
In a further data set the test system is CHO-K1. Kind of data set: Effect on calcium efflux in CHOK1 cells at 5 uM by Fluo-4 dye-based FLIPR assay. The class given is functional, Cricetulus griseus.
Data set [6] deals with T3, Free fatty acid receptor 1 (Homo sapiens, UniProt O14842). Put plainly: Agonist activity at human GPR40 measured after 60 mins by IP1-HTRF assay. The class given is functional.
Data set [7] in a line: Oral bioavailability in mouse at 10 mg/kg. The format is ADME, organism-based. The note with it: in vivo.
A short description of data set [8]: Volume of distribution in mouse at 2 mg/kg, iv or 10 mg/kg, po. The class given is ADME, organism-based. The note with it: in vivo.
Data set [9] is described as follows: Cmax in mouse at 2 mg/kg, iv or 10 mg/kg, po. The note with it: in vivo. The class given is ADME, organism-based.
Data set [10] concerns the target T4, Free fatty acid receptor 4 (Homo sapiens) (UniProt Q5NUL3).
T4 sequence (whole entry): T2 sequence (Q5NUL3 whole entry)
Kind of data set: Agonist activity at human GPR120 expressed in CHO-NFAT cells assessed as increase in calcium efflux at 5 uM by Fluo-4 dye-based FLIPR assay. The format is functional, cell-based.

Data set [11] deals with T4, Free fatty acid receptor 4 (Homo sapiens). Put plainly: Agonist activity at human GPR120 expressed in CHOK1 cells measured after 60 mins by IP1-HTRF assay relative to basal level. The format is functional, cell-based. On the set-up: concentration or dose not given beside the values. Particulars: CHO-K1.
The target of data set [12] is T5, Free fatty acid receptor 4 (Mus musculus, UniProt Q7TMA4).
T5 sequence (Q7TMA4 whole entry): T1 sequence (whole entry)
Kind of data set: Agonist activity at mouse GPR120 expressed in CHOK1 cells measured after 60 mins by IP1-HTRF assay. The class given is functional, cell-based, CHO-K1.

Data set [13] addresses T4, Free fatty acid receptor 4 (Homo sapiens). Put plainly: Agonist activity at GPR120 (unknown origin) at 5 uM by PathHunter cell based assay.
Another data set deals with Cytochrome P450 3A4 (Homo sapiens, UniProt P08684). Kind of data set: Inhibition of CYP3A4 (unknown origin). The format is ADME.
The next data set concerns the target Cytochrome P450 2D6 (Homo sapiens, UniProt P10635). Put plainly: Inhibition of CYP2D6 (unknown origin). The class given is ADME.
The next data set deals with Cytochrome P450 2C9 (Homo sapiens, UniProt P11712). Put plainly: Inhibition of CYP2C9 (unknown origin). The format is ADME.
For data set [14], the target named is Voltage-dependent L-type calcium channel subunit alpha-1C (Homo sapiens, UniProt Q13936). Put plainly: Inhibition of Cav1.2 (unknown origin).
Data set [15] deals with Sodium channel protein type 5 subunit alpha (Homo sapiens, UniProt Q14524). Put plainly: Inhibition of Nav1.5 (unknown origin).
A short description of data set [16]: Drug uptake in GPR120 knockout mouse blood at 30 mg/kg, po. The class given is ADME, organism-based. Particulars: in vivo, read-out: Drug uptake.
In data set [17] the test system is Mus musculus. Kind of data set: In vivo agonist activity at GPR120 in wild-type mouse assessed as target engagement at 100 mg/kg, po. The class given is functional.
The nature of data set [18]: Antidiabetic activity in wild-type mouse assessed as reduction in glucose excursion at 30 and 100 mg/kg, po by oral glucose tolerance test. The format is functional, organism-based.
Data set [19] in a line: Drug uptake in GPR120 knockout mouse blood at 100 mg/kg, po. The format is ADME, organism-based. Particulars: in vivo, read-out: Drug uptake.
A short description of data set [20]: Drug uptake in wild-type mouse blood at 100 mg/kg, po. The format is ADME, organism-based. The note with it: in vivo, read-out: Drug uptake.
In data set [21] the target is T3, Free fatty acid receptor 1. Put plainly: Agonist activity at human GPR40 measured after 60 mins by IP1-HTRF assay relative to basal level. The format is functional. The arrangement: concentration or dose not given beside the values.
Data set [22] in a line: Drug uptake in wild-type mouse blood at 30 mg/kg, po. The format is ADME, organism-based. Particulars: in vivo, read-out: Drug uptake.
In data set [23] the test system is Mus musculus. Put plainly: Reduction of glucose excursion in GPR120 knockout mouse at 30 and 100 mg/kg, po by oral glucose tolerance test. The format is functional, organism-based.
Data set [24] concerns Mus musculus. Kind of data set: In vivo agonist activity at GPR120 in wild-type mouse assessed as target engagement at 30 mg/kg, po. The class given is functional.
Data set [25] has as its target Voltage-gated inwardly rectifying potassium channel KCNH2 (Homo sapiens, UniProt Q12809).

Chain of Cytochrome P450 2C9 (P11712 whole entry): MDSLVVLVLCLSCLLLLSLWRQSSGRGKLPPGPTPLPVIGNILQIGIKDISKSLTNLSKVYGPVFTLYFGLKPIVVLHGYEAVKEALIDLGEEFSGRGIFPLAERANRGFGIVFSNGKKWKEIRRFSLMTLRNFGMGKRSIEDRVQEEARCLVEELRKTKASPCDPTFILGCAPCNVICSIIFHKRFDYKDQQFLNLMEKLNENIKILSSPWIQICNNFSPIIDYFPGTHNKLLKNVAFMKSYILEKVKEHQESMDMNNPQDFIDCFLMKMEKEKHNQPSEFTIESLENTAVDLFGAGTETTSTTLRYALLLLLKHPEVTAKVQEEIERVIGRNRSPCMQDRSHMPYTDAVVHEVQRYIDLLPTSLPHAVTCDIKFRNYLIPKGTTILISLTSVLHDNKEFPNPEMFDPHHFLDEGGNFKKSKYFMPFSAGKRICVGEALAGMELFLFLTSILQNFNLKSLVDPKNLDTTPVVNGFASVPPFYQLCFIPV
Chain of Cytochrome P450 2D6 (P10635 whole entry): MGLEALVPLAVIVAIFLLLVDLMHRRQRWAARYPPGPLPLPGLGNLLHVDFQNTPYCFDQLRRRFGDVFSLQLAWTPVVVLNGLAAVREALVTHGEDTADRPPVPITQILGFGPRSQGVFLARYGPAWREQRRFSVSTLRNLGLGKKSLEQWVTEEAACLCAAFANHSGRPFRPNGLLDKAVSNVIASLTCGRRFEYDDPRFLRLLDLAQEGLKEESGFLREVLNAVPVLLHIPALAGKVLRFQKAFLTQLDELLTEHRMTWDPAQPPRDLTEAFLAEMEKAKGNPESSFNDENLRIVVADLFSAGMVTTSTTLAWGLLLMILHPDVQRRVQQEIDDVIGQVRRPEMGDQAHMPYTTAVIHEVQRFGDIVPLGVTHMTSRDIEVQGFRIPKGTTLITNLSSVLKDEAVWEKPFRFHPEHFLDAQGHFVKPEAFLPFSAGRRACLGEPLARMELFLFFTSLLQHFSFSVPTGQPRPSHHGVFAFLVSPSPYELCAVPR
T3 sequence (O14842 whole entry): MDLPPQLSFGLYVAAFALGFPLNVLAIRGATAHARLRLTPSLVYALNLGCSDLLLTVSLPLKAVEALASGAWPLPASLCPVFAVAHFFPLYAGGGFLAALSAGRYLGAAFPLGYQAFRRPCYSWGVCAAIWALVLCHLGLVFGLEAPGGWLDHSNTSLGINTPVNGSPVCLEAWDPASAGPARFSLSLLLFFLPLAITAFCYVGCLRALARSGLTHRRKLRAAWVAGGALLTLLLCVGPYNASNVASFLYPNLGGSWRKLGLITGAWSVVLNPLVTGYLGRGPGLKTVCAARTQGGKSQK
Chain of Sodium channel protein type 5 subunit alpha (Q14524 whole entry): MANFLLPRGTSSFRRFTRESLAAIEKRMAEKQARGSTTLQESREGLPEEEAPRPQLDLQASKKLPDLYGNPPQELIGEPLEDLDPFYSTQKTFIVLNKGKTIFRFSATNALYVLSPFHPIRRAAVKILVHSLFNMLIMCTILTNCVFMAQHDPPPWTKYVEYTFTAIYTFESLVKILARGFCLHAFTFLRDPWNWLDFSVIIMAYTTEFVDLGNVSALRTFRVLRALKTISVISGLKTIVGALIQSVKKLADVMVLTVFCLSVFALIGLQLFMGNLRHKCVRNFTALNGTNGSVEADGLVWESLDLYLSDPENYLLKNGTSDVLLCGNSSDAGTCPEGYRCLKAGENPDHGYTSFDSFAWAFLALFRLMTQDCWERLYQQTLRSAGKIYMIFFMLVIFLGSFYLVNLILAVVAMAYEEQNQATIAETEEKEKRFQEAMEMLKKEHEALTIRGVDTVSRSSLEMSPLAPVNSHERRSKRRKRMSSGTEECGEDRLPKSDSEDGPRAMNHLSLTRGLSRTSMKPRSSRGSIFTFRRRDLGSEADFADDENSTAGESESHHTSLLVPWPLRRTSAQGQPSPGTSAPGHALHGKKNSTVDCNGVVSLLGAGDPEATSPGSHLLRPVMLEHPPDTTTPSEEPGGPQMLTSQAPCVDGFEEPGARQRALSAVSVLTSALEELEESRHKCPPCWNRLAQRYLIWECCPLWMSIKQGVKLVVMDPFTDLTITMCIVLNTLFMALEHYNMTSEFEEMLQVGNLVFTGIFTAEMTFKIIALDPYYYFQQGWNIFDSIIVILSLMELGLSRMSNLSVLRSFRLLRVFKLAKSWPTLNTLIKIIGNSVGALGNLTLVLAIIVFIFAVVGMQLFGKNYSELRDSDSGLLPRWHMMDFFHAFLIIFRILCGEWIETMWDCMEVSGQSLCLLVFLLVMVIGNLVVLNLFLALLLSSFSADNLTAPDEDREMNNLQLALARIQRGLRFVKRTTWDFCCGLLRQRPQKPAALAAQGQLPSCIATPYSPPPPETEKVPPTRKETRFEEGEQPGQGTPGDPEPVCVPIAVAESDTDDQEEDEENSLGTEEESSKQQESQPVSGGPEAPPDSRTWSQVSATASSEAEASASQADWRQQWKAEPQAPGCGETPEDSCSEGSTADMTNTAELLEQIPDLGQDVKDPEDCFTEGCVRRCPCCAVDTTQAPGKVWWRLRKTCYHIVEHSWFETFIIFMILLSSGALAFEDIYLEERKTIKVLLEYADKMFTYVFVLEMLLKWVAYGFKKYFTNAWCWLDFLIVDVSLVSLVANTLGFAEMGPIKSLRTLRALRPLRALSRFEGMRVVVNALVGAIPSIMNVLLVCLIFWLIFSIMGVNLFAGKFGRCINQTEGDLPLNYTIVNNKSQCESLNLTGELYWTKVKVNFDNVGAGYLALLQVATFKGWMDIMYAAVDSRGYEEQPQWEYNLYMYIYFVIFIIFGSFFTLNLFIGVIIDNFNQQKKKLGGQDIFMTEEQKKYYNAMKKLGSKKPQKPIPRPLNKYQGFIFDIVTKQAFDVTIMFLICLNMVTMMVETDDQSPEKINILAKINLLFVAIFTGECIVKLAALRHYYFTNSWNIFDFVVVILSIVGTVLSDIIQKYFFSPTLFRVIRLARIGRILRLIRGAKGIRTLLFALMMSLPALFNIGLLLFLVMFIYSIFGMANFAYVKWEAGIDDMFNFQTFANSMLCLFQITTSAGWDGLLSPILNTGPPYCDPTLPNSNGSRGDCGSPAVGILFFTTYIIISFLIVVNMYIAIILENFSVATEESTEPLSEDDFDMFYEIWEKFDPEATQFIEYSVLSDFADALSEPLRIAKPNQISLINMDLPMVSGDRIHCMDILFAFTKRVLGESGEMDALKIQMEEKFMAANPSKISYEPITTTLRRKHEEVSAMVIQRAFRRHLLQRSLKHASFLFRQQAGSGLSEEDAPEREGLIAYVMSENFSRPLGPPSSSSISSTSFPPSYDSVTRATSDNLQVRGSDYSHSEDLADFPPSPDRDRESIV
Chain of Cytochrome P450 3A4 (P08684 whole entry): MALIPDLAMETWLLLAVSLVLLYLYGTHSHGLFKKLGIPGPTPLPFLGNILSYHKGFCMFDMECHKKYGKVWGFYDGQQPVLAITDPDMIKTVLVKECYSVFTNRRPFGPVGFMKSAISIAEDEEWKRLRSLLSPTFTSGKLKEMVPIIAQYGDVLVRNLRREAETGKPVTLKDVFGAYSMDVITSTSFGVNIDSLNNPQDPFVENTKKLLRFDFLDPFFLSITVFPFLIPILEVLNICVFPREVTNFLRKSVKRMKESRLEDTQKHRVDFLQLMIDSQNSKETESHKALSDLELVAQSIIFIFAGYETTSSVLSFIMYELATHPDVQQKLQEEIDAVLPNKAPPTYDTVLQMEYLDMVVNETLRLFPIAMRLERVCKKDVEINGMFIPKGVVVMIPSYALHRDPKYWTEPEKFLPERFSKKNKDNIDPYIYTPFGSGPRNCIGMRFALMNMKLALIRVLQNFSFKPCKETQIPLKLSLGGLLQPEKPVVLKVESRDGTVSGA
Chain of Voltage-gated inwardly rectifying potassium channel KCNH2 (Q12809 whole entry): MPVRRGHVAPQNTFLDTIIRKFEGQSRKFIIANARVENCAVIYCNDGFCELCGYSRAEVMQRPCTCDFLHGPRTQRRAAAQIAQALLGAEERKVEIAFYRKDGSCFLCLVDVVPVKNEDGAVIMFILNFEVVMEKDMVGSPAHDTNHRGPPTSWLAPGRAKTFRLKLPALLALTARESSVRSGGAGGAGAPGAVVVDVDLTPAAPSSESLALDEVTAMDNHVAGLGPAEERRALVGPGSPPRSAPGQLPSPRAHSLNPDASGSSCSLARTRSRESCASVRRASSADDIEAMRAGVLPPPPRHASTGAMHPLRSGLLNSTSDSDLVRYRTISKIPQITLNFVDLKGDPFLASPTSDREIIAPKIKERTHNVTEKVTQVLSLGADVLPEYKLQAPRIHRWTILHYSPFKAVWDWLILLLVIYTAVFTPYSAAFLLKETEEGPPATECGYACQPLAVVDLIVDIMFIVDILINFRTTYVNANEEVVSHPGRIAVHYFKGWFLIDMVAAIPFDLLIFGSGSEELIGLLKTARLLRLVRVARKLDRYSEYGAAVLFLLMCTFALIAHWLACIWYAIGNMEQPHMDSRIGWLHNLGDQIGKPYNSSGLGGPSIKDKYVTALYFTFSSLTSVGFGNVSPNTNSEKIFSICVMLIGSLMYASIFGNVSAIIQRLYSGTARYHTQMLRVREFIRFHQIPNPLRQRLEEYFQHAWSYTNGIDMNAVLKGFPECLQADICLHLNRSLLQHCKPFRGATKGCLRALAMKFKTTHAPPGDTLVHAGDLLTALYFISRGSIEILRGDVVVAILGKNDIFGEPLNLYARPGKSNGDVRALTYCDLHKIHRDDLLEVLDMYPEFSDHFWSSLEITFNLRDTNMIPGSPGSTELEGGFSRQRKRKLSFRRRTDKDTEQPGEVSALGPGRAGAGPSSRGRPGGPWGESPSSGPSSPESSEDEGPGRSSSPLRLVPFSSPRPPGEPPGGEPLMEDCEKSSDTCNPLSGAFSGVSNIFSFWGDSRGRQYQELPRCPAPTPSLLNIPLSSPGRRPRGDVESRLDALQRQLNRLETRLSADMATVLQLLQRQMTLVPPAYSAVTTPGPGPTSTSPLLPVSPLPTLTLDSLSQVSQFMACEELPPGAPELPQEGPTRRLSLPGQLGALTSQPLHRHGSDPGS

With `O=C(O)CCCOc1ccc(-c2noc3ccccc23)c(Cl)c1Cl`, the Activity was 29% in data set [1], less than 10% in the data set on CHO-K1, more than 11% in data set [10] and 24% in [11]. The same compound had a half-life in data set [2] of 3.3 h. The clearance in data set [3] turned out to be 24 mL/min/kg. Further, the pEC50 in data set [4] is 6.32; in data set [6], less than 5.00; in data set [12], 6.31. Moreover, in [5], the fraction unbound is 0.042. Also, the bioavailability in data set [7] was 97%. Moreover, the Vd in data set [8] amounted to 5.6 L/kg. This compound also gave a Cmax in data set [9] of 4.64 µM. Also, in [13], the result was Active.
On to `Cc1cc(-c2cc(OC(F)(F)F)ccc2Cl)cc(C)c1OCCCC(=O)O`, for which the Activity in [1] amounted to 73%; in data set [11], 61%. The compound further showed a half-life in data set [2] of 5.5 h. The clearance in [3] turned out to be 4.9 mL/min/kg. Also, the negative logarithm of the EC50 (pEC50) is 7.03 in [4], less than 5.00 in [6] and 7.80 in data set [12]. Also, in [5], the fraction unbound is 0.002. Moreover, the pIC50 was 5.48 against Cytochrome P450 3A4; less than 4.30 against Cytochrome P450 2D6; less than 4.30 against Cytochrome P450 2C9; 4.89 in data set [14]; 5.04 in data set [15]. In [7], this compound returned a bioavailability of 41%. In data set [8], this compound came in with a Vd of 0.95 L/kg. The compound also came in with a Cmax in [9] of 6.1 µM.
With `O=C(O)CCc1cc2cc(-c3cc(OC(F)(F)F)ccc3F)ccc2o1`, the Activity worked out at 75% in [1]; 68% with Mus musculus [17]; 38% in data set [21]; 73% in [11]; 40% in the data set on Mus musculus [24]. Besides, in [2], the half-life is 1.6 h. In addition, the clearance in [3] was 20 mL/min/kg. In addition, the pEC50 is 7.20 in data set [4], 5.74 in [6] and 7.37 in [12]. The fraction unbound in data set [5] was 0.002. Besides, the concentration in data set [16] worked out at 24.8 µM; in data set [19], 23 µM; in data set [20], 45.1 µM; in data set [22], 33.4 µM. The pIC50 against Cytochrome P450 3A4 was less than 4.30; at Cytochrome P450 2D6 it was less than 4.30; at Cytochrome P450 2C9, 4.42; in data set [14], 4.82; in data set [15], less than 4.52. Further, the outcome (in data set [18]; in the data set on Mus musculus [23]) was Active. Moreover, the bioavailability in data set [7] is 100%. Further, the Vd in data set [8] is 3 L/kg. The compound also gave a maximum concentration (Cmax) in data set [9] of 8.17 µM.
Consider `O=C(O)CCCOc1ccc(-c2cc(OC(F)(F)F)ccc2Cl)cc1`, for which the Activity in [1] was determined as 64%; in data set [21], 40%; in data set [11] it was 71%. This compound gave a half-life in data set [2] of 1.3 h. The compound further registered a clearance in data set [3] of 17 mL/min/kg. Moreover, the pEC50 in data set [4] was 7.24; in data set [6], 5.98; in [12], 8.05. Further, the fraction unbound in data set [5] was 0.049. Further, the negative-log IC50 (pIC50) against Cytochrome P450 3A4 is less than 4.30; against Cytochrome P450 2D6, less than 4.30; on Cytochrome P450 2C9 it was 4.48; in data set [14] it was less than 4.52; in data set [25], less than 4.22; in [15], 4.76. In [7], this compound gave a bioavailability of 45%. The Vd in data set [8] turned out to be 1.86 L/kg. Besides, in [9], the concentration peaked (Cmax) at 2.38 µM.
As for `O=C(O)CCCOc1ccc(-c2cc(OC(F)(F)F)ccc2F)cc1`, the Activity in data set [1] stood at 34%; in [21] it was 91%; in [11], 16%. Also, the pEC50 was 6.02 in [4], 5.37 in data set [6] and 6.36 in data set [12].
Take `O=C(O)CCCOc1ccc(-c2cc(Oc3cccc(F)c3)ccc2Cl)cc1`: the Activity in data set [1] came out at 70%; in [21], 67%; in [11], 80%. Further, the results for the pEC50 in data set [4], in data set [6] and in [12] were 6.70, 5.47 and 7.47, respectively.
